These results are taken from patent US11724992B2 (Novartis AG, priority 2017, dated 2023).

Each structure is given as a SMILES string. pIC50: −log10 of the molar value.

Usually pIC50 stands for −log10 of the IC50, conventionally taken in molar units.

The first assay relates to IL-1β production in PMA-differentiated THP-1 cells. The experiment in a line: IL-1β production in PMA-differentiated THP-1 cells stimulated with gramicidin (hTHP-1 assay, 2% fetal bovine serum; Procedures 1-3). In kind it is cell-based, human. Conditions: Homo sapiens, THP-1, hTHP-1 assay containing 2% fetal bovine serum; class symbols; read-out: hTHP-1 IC50 (Average IC50 of compounds in hTHP-1 assay). A digest of the protocol:
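Readout is HTRF of IL-1β in cell-free supernatant after 2 h gramicidin (5 μM) challenge. Cells: THP-1 differentiated with PMA 20 ng/ml for 16-18 h, plated 50,000/well in 2% FBS RPMI, exposed to compound 1 h beforehand at final 100–0.0017 μM, DMSO 0.37%.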
As to `COC(C)(C)c1ccc(S(N)(=O)=NC(=O)Nc2c3c(cc4c2CCC4)CCC3)cc1` (centres unmarked) [Example 274, N′-(1,2,3,5,6,7-hexahydro-s-indacen-4-ylcarbamoyl)-4-(2-methoxypropan-2-yl)benzenesulfonimidamide], the pIC50 was 6.00 to 6.70. As for `CN(C)Cc1ccc(S(N)(=O)=NC(=O)Nc2c3c(cc4c2CCC4)CCC3)nc1` (centres unmarked) [Example 278, 5-((Dimethylamino)methyl)-N′-(1,2,3,5,6,7-hexahydro-s-indacen-4-ylcarbamoyl)pyridine-2-sulfonimidamide], the negative-log IC50 (pIC50) is 6.00 to 6.70. In the case of `CN(C)Cc1cc(F)c(S(N)(=O)=NC(=O)Nc2c3c(cc4c2CCC4)CCC3)s1` (centres unmarked) [Example 279, 5-((Dimethylamino)methyl)-3-fluoro-N′-(1,2,3,5,6,7-hexahydro-s-indacen-4-ylcarbamoyl)thiophene-2-sulfonimidamide], the pIC50 is 7.40 to 8.10. With `CC(C)(O)c1ncc(S(N)(=O)=NC(=O)Nc2cc3c(c4c2CCC4)CCC3)s1` (centres unmarked) [Example 285, N′-((1,2,3,6,7,8-hexahydro-as-indacen-4-yl)carbamoyl)-2-(2-hydroxypropan-2-yl)thiazole-5-sulfonimidamide], the negative logarithm of the IC50 (pIC50) was 6.70 to 7.40. Same read-out and setting: in the case of `CC(C)(O)c1ncc(S(N)(=O)=NC(=O)Nc2c3c(cc4c2OCC4)CCC3)s1` (centres unmarked) [Example 289, 2-(2-Hydroxypropan-2-yl)-N′-((3,5,6,7-tetrahydro-2H-indeno[5,6-b]furan-8-yl)carbamoyl)thiazole-5-sulfonimidamide] it was 6.70 to 7.40. For the compound `COC(C)(C)c1ncc(S(N)(=O)=NC(=O)Nc2c3c(cc4c2CCC4)CCC3)s1` (centres unmarked) [Example 295, N′-((1,2,3,5,6,7-hexahydro-s-indacen-4-yl)carbamoyl)-2-(2-methoxypropan-2-yl)thiazole-5-sulfonimidamide], the pIC50 was 6.70 to 7.40.

Staying with this assay, now noted: hTHP-1 assay containing 2% fetal bovine serum; class symbols; read-out: hTHP-1 IC50 (Average IC50 of compounds in hTHP-1 assay).
`CN1CCCC1c1ccc(S(=N)(=O)NC(=O)Nc2c3c(cc4c2CCC4)CCC3)cc1` (centres unmarked) [Example 283, N-((1,2,3,5,6,7-hexahydro-s-indacen-4-yl)carbamoyl)-4-(1-methylpyrrolidin-2-yl)benzenesulfonimidamide]: the pIC50 is 6.00 to 6.70.

`CC1CCc2c1cc1c(c2NC(=O)N=S(N)(=O)c2cnc(C(C)(C)O)s2)CCC1` (centres unmarked) [Example 291, 2-(2-Hydroxypropan-2-yl)-N′-((1-methyl-1,2,3,5,6,7-hexahydro-s-indacen-4-yl)carbamoyl)thiazole-5-sulfonimidamide]: the pIC50 was 6.70 to 7.40.

Turning to `CC1CCc2cc3c(c(NC(=O)N=S(N)(=O)c4cnc(C(C)(C)O)s4)c21)CCC3` (centres unmarked) [Example 292, 2-(2-Hydroxypropan-2-yl)-N′-((3-methyl-1,2,3,5,6,7-hexahydro-s-indacen-4-yl)carbamoyl)thiazole-5-sulfonimidamide], the pIC50 was 6.70 to 7.40. Same read-out and setting: in the case of `[2H]C([2H])([2H])C(O)(c1ncc([S@](N)(=O)=NC(=O)Nc2c3c(cc4c2CCC4)CCC3)s1)C([2H])([2H])[2H]` [Example 393, (R)-N′-((1,2,3,5,6,7-hexahydro-s-indacen-4-yl)carbamoyl)-2-(2-hydroxypropan-2-yl-1,1,1,3,3,3-d6)thiazole-5-sulfonimidamide] it was 7.40 to 8.10; in that of `[2H]C([2H])([2H])C(O)(c1ncc([S@@](N)(=O)=NC(=O)Nc2c3c(cc4c2CCC4)CCC3)s1)C([2H])([2H])[2H]` [Example 394, (S)-N′-((1,2,3,5,6,7-hexahydro-s-indacen-4-yl)carbamoyl)-2-(2-hydroxypropan-2-yl-1,1,1,3,3,3-d6)thiazole-5-sulfonimidamide], 6.00 to 6.70.
